Laboratory results published in US12312332B2 (Merck Sharp & Dohme LLC., priority 2019, dated 2025).

Target: T1, human OX2R (Homo sapiens, UniProt O43614)
T1 construct: expressed in transfected cells; host or cells: Chinese hamster ovary (CHO) cells, kept under G418 selection
T1 sequence (O43614 1-444): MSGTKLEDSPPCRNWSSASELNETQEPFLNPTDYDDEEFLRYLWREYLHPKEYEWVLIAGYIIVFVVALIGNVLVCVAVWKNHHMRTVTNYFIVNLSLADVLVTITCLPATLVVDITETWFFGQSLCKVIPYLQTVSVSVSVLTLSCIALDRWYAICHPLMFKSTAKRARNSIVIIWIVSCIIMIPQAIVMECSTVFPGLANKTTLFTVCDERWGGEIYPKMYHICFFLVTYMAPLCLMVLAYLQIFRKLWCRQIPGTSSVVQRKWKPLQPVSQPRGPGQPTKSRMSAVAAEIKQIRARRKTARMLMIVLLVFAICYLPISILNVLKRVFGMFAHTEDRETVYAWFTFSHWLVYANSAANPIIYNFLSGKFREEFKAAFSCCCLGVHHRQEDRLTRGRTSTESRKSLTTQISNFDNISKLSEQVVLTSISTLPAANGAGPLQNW
Test: IPOne (IP-One) orexin receptor agonist assay in CHO cells expressing human OX2R
Type: cell-based
Conditions: for EC50: CHO cells expressing human OX2R, IP-One detection, 2 hours incubation, four parameter logistic fit, read-out: OX2R Potency, EC50; for % max agonist effect (Emax): human OX2R, percentage of sample raw value/mean max effect (reference compound at 1 uM with 100% activity)
From the text: The utility of the compounds in accordance with the present invention as orexin receptor OX1R and/or OX2R agonists may be readily determined without undue experimentation by methodology well known in the art. Both the OX1R and/or OX2R G-coupled protein receptors (GPCRs) couple through the Gaq signaling pathway, which ultimately promotes calcium mobilization via inositol triphosphate (IP3) production. […] The utility of the compounds in accordance with the present invention as orexin receptor OX1R and/or OX2R agonists may be determined utilizing this assay.
In a typical experiment, the OX1 and OX2 receptor agonist activity is determined in accordance with the following general experimental method. Chinese hamster ovary (CHO) cells expressing human OX1R and/or the human OX2R were grown in Iscove's modified DMEM containing glutaMAX™, 1% G418, 100 U/mL penicillin, 100 μg/mL streptomycin and 10% heat-inactivated qualified fetal bovine serum (FBS). […] During this incubation, IP-one detection reagents were prepared (38:1:1 lysis buffer:D2:AB-cryptate reagents).
For each compound, data were fit to a four parameter logistic fit (ActivityBase software) and the EC50 was reported as the inflection point of the resulting curve. Percent effect for each test compound was determined as the percentage of sample raw value/mean max effect, where the mean max effect was derived from the mean raw value of 32 control wells per assay plate (using Orexin A (cat #003-30) at 1 μM for human OX1R and a reference compound at 1 uM with 100% activity previously established by comparison to Orexin A for human OX2R). The intrinsic orexin receptor agonist activity of a compound which may be used in the present invention may be determined by these assays.

EC50 | % max agonist effect (Emax) | SMILES
0.8 nM | 100.4% | CS(=O)(=O)N[C@H]1CCN(c2cc(O)ccn2)[C@H]1CO[C@H]1CC[C@@H](c2ccccc2)CC1 [Example 75, N-((2R,3S)-1-(4-hydroxypyridin-2-yl)-2-((((CIS)-4-phenylcyclohexyl)oxy)methyl)pyrrolidin-3-yl)methanesulfonamide]
148 nM | 99.9% | Cn1ccc(=O)c(F)c1N1CC[C@H](NS(C)(=O)=O)[C@@H]1CO[C@H]1CC[C@@H](c2ccccc2)CC1 [Example 86, N-((2R,3S)-1-(3-fluoro-1-methyl-4-oxo-1,4-dihydropyridin-2-yl)-2-((((CIS)-4-phenylcyclohexyl)oxy)methyl)pyrrolidin-3-yl)methanesulfonamide]
676 nM | 97.2% | CS(=O)(=O)N[C@H]1CCN(c2nc(O)cs2)[C@H]1CO[C@H]1CC[C@@H](c2ccccc2)CC1 [Example 107, N-((2R,3S)-1-(4-hydroxythiazol-2-yl)-2-((((CIS)-4-phenylcyclohexyl)oxy)methyl)pyrrolidin-3-yl)methanesulfonamide]
736 nM | 98.8% | CS(=O)(=O)N[C@H]1CCN(c2ncccc2F)[C@H]1CO[C@H]1CC[C@@H](c2ccccc2)CC1 [Example 131, N-((2R,3S)-1-(3-fluoropyridin-2-yl)-2-((((CIS)-4-phenylcyclohexyl)oxy)methyl)pyrrolidin-3-yl)methanesulfonamide]
331 nM | 101.1% | CS(=O)(=O)N[C@H]1CCN(c2ncc(F)cc2F)[C@H]1CO[C@H]1CC[C@@H](c2ccccc2)CC1 [Example 63, N-((2R,3S)-1-(3,5-difluoropyridin-2-yl)-2-((((CIS)-4-phenylcyclohexyl)oxy)methyl)pyrrolidin-3-yl)methanesulfonamide]

The next lines start with the compound.

SMILES | EC50 | % max agonist effect (Emax)
Cn1cc(N2CC[C@H](NS(C)(=O)=O)[C@@H]2CO[C@H]2CC[C@@H](c3ccccc3)CC2)cn1 [Example 40, N-((2R,3S)-1-(1-methyl-1H-pyrazol-4-yl)-2-((((CIS)-4-phenylcyclohexyl)oxy)methyl)pyrrolidin-3-yl)methanesulfonamide] | 431 nM | 98.8%
Cn1cc(N2CC[C@H](NS(C)(=O)=O)[C@@H]2CO[C@H]2CC[C@@H](c3ccccc3)CC2)cn1 (relative stereo) [Example 2, N-((CIS)-1-(1-methyl-1H-pyrazol-4-yl)-2-((((CIS)-4-phenylcyclohexyl)oxy)methyl)pyrrolidin-3-yl)methanesulfonamide] | 896 nM | 89.7%
CS(=O)(=O)N[C@H]1CCN(c2ncc(F)c(O)c2F)[C@H]1CO[C@H]1CC[C@@H](c2cccc(F)c2)CC1 [Example 163, N-((2R,3S)-1-(3,5-difluoro-4-hydroxypyridin-2-yl)-2-((((CIS)-4-(3-fluorophenyl)cyclohexyl)oxy)methyl)pyrrolidin-3-yl)methanesulfonamide] | 1.4 nM | 101.8%
COc1cc(N2CC[C@H](NS(C)(=O)=O)[C@@H]2CO[C@H]2CC[C@@H](c3ccccc3)CC2)cnc1OC [Example 54, N-((2R,3S)-1-(5,6-dimethoxypyridin-3-yl)-2-((((CIS)-4-phenylcyclohexyl)oxy)methyl)pyrrolidin-3-yl)methanesulfonamide] | 782 nM | 98.9%
CS(=O)(=O)N[C@H]1CCN(c2nccc(O)c2F)[C@H]1CO[C@H]1CC[C@@H](c2c(F)ccc(F)c2F)CC1 [Example 161, N-((2R,3S)-1-(3-fluoro-4-hydroxypyridin-2-yl)-2-((((CIS)-4-(2,3,6-trifluorophenyl)cyclohexyl)oxy)methyl)pyrrolidin-3-yl)methanesulfonamide] | 2 nM | 100.3%
